Experimental data taken from patent publication US5354865A, “Phenylmethyl derivatives having lipoxygenase inhibitory activity” (Abbott Laboratories, priority 1992, dated 1994).

Biological target: T1, 5-Lipoxygenase (Homo sapiens, UniProt P09917)
T1 construct: from tissue; host or cells: human heparinized whole blood (endogenous enzyme of its blood cells)
T1 sequence (P09917 1-674): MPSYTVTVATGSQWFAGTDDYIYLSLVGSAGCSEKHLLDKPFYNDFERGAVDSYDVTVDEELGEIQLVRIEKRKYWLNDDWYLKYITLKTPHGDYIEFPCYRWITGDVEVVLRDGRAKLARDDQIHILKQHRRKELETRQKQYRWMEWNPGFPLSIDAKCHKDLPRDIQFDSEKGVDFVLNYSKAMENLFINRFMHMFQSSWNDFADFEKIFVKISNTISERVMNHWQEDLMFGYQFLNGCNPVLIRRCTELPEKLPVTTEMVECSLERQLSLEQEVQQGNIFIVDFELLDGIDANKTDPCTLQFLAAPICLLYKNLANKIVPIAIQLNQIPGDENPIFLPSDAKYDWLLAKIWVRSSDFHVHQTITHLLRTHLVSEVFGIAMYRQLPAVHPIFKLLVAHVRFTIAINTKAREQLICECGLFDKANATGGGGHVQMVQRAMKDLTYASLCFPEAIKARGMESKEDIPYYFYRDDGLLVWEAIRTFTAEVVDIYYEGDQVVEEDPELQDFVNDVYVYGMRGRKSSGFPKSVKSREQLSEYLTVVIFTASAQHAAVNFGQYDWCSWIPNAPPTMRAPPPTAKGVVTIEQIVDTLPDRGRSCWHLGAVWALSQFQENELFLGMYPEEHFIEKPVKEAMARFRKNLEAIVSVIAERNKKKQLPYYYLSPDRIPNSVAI
Assay: Inhibition of leukotriene biosynthesis: calcium ionophore A23187-induced LTB4 biosynthesis in human whole blood (RIA)
Assay type: cell-based
Conditions: for IC50: human heparinized whole blood, 15 min preincubation at 37° C., A23187 8.3 μM, 30 min, LTB4 by RIA, read-out: In vitro inhibitory potency against 5-lipoxygenase from stimulated LTB4 formation in human whole blood, IC50
Description: Inhibition of leukotriene biosynthesis was evaluated in an assay, involving calcium ionophore-induced LTB4 biosynthesis expressed human whole blood. Human heparinized whole blood was preincubated with test compounds or vehicle for 15 min at 37° C. followed by calcium ionophore A23187 challenge (final concentration of 8.3 μM) and the reaction terminated after 30 min by adding two volumes of methanol containing prostaglandin B2 as an internal recovery standard. The methanol extract was analyzed for LTB4 using a commercially available radioimmunoassay.

[1] = human whole blood, A23187, read-out: Inhibition of stimulated LTB4 formation in human whole blood

Structure (SMILES)	IC50 [nM]	other results
CCON=C(c1cccc(OCc2ccc3c(ccc(=O)n3C)c2)c1)C1CCOCC1 [Example 13, E- and Z-O-Ethyl-4-[(3-((1,2-dihydro-1-methyl-2-oxoquinolin-6-yl)methoxy)phen-1-yl)oximinomethyl]tetrahydropyran]	830	–
COC1(Cc2cccc(OCc3ccc4ccccc4c3)c2)CCOCC1 [Example 14, 4-methoxy-4-[(3-((naphth-2-yl)methoxy)phen-1-yl)methyl]tetrahydropyran]	2000	–
CON=C(c1cc(F)cc(OCc2ccc3c(ccc(=O)n3C)c2)c1)C1CCOCC1 [Example 15, E- and Z-O-methyl-[(3-((1,2-dihydro-1-methyl-2-oxoquinolin-6-yl)methoxy)-5-fluorophen-1-yl)oximinomethyl]tetrahydropyran]	–	inhibition at 0.2 µM (@ 0.20 μM, human whole blood, A23187, read-out: Inhibition of stimulated LTB4 formation in human whole blood): 99.6%
Cn1c(=O)ccc2cc(COc3cc(F)cc(C(=NO)C4CCOCC4)c3)ccc21 [Example 16, E- and Z-4-[(3-((1,2-dihydro-1-methyl-2-oxoquinolin-6-yl)methoxy)-5-fluorophen-1-yl) oximinomethyl]tetrahydropyran]	–	inhibition at 0.78 µM [1]: 98%
Cn1c(=O)ccc2cc(COc3cccc(C(=NO)C4CCOCC4)c3)ccc21 [Example 11, E- and Z-4-[(3-((1,2-dihydro-1-methyl-2-oxoquinolin-6-yl)methoxy)phen-1-yl)oximinomethyl]tetrahydropyran]	–	inhibition at 0.39 µM [1]: 73%
NN=C(c1cccc(OCc2ccc3ccccc3c2)c1)C1CCOCC1 [Example 6]	2400	–
COC(c1cccc(OCc2ccc3ccccc3c2)c1)C1CCOCC1 (centres unmarked) [Example 2, 4-[(3-(naphth-2-yl)methoxyphen-1-yl)methoxymethyl]tetrahydropyran]	730	–
OC(c1cccc(OCc2ccc3ccccc3c2)c1)C1CCOCC1 (centres unmarked) [Example 1, 4-[(3-(naphth-2-yl)methoxyphen-1-yl)hydroxymethyl]tetrahydropyran]	3500	–
CON=C(c1cccc(OCc2ccc3c(ccc(=O)n3C)c2)c1)C1CCOCC1 [Example 12, E- and Z-O-Methyl-4-[(3-((1,2-dihydro-1-methyl-2-oxoquinolin-6-yl)methoxy)phen-1-yl)oximinomethyl]tetrahydropyran]	–	inhibition at 0.78 µM [1]: 99%
CON=C(c1cccc(OCc2ccc3ccccc3c2)c1)C1CCOCC1 [Example 7, E- and Z-O-methyl-4-[(3-(naphth-2-yl)methoxyphen-1-yl)oximinomethyl]tetrahydropyran]	–	inhibition at 0.39 µM [1]: 68%
COC(c1cccc(OCc2ccc3c(ccc(=O)n3C)c2)c1)C1CCOCC1 (centres unmarked) [Example 9, 4-[(3-(1,2-dihydro-1-methyl-2-oxoquinolin-6-yl)methyloxyphen-1-yl)methoxymethyl]tetrahydropyran]	710	–
COCOC(c1cccc(OCc2ccc3c(ccc(=O)n3C)c2)c1)C1CCOCC1 (centres unmarked) [Example 10, 4-[(3-((1,2-dihydro-1-methyl-2-oxoquinolin-6-yl)methoxy)phen-1-yl)methoxymethoxymethyl]tetrahydropyran]	940	–

Second part, led by results:

IC50 [nM]	Structure (SMILES)	other results
5200	CC1(C(=NO)c2cc(F)cc(OCc3ccc4ccccc4c3)c2)COC1 [Example 18, E- and Z-3-methyl-3-[(3-((naphth-2-yl)methoxy)-5-fluorophen-1-yl)oximinomethyl]oxetane]	–
2900	CON=C(c1cc(F)cc(OCc2ccc3ccccc3c2)c1)C1(C)COC1 [Example 17, E- and Z-O-methyl-3-methyl-3-[(3-((naphth-2-yl)methoxy)-5-fluorophen-1-yl)oximinomethyl]oxetane]	–
